The first data set has as its system Respiratory syncytial virus. Put plainly: Antiviral activity against RSV assessed as inhibition of viral replication by cell based assay. The class given is functional, organism-based. As to conditions: human respiratory syncytial virus.
For the compound `COCCCn1c(CN2C(=O)/C(=N/OC)c3ccccc32)nc2ccccc21`, the concentration for a half-maximal effect (EC50) (as a rule, the concentration needed to bring the measured effect to its halfway point) is 30 nM. For `CC(C)(C)O/N=C1/C(=O)N(Cc2nc3ccccc3n2CCCCO)c2ccccc21`, the 50% effective concentration (EC50) turned out to be 1130 nM.

Turning to `COCCCn1c(CN2C(=O)/C(=N/OCS(=O)(=O)O)c3ccccc32)nc2ccccc21`, the concentration for a half-maximal effect (EC50) was 46 nM. With `C=CCCO/N=C1/C(=O)N(Cc2nc3ccccc3n2CCCOC)c2ccccc21`, the concentration giving a half-maximal response (EC50) came out at 260 nM. On the same count and under the same terms, for `C=CCCCO/N=C1/C(=O)N(Cc2nc3ccccc3n2CCCOC)c2ccccc21` the value was 192 nM; for `CC(C)CCn1c(CN2C(=O)/C(=N/OCc3ccc(C(=O)N(C)C)cc3)c3ccccc32)nc2ccccc21`, 9 nM.

For `COCCCn1c(CN2C(=O)/C(=N/OC(C)C)c3ccccc32)nc2ccccc21`, the concentration giving a half-maximal response (EC50) came out at 257 nM. Regarding `COCCCn1c(CN2C(=O)/C(=N/OC3CCOCC3)c3ccccc32)nc2ccccc21`, the EC50 was determined as 206 nM. For the compound `COCCCn1c(CN2C(=O)/C(=N/OCCCN3CCCCC3)c3ccccc32)nc2ccccc21`, the EC50 was 290 nM. In the case of `CC(=O)OCCCCn1c(CN2C(=O)/C(=N/OCc3ccc(S(C)(=O)=O)cc3)c3ccccc32)nc2ccccc21`, the half-maximal effective concentration (EC50) was 5 nM. For the compound `COCCCn1c(CN2C(=O)/C(=N/OCC(O)CC#N)c3ccccc32)nc2ccccc21` (configuration not stated), the EC50 worked out at 65 nM. With `CCO/N=C1/C(=O)N(Cc2nc3ccccc3n2CCCOC)c2ccccc21`, the EC50 turned out to be 59 nM. For `N#CCCCn1c(CN2C(=O)/C(=N/OCC(N)=O)c3ccccc32)nc2ccccc21`, the EC50 is 45 nM.

In the case of `CCCO/N=C1/C(=O)N(Cc2nc3ccccc3n2CCCOC)c2ccccc21`, the EC50 was found to be 147 nM. As to `C=CCO/N=C1/C(=O)N(Cc2nc3ccccc3n2CCCS(C)(=O)=O)c2cnccc21`, the EC50 is 12.4 nM. For `COCCCn1c(CN2C(=O)/C(=[N+](/[O-])C3CCCCC3)c3ccccc32)nc2ccccc21`, the concentration for a half-maximal effect (EC50) was found to be 285 nM. As for `COCCCn1c(CN2C(=O)/C(=N/OC3CCCCC3)c3ccccc32)nc2ccccc21`, the EC50 was found to be 652 nM. Regarding `C=CCO/N=C1/C(=O)N(Cc2nc3ccccc3n2CCCOC)c2ccccc21`, the EC50 was 428 nM. Regarding `COCCCn1c(CN2C(=O)/C(=N/OCCCCOC(C)=O)c3ccccc32)nc2ccccc21`, the 50% effective concentration (EC50) came to 62 nM.

As for `COCCCn1c(CN2C(=O)/C(=N/OCCN(C)C)c3ccccc32)nc2ccccc21`, the concentration giving a half-maximal response (EC50) is 370 nM. On the same count and under the same terms, for `COCCCn1c(CN2C(=O)/C(=N/OCCCC#N)c3ccccc32)nc2ccccc21` the value was 79 nM; for `CC(=O)OCCCCn1c(CN2C(=O)/C(=N/OCCF)c3cccnc32)nc2ccccc21`, 54.6 nM; for `COCCCn1c(CN2C(=O)/C(=N/OCCN3CCCCC3)c3ccccc32)nc2ccccc21`, 682 nM. `COCCCn1c(CN2C(=O)/C(=N/OCc3ccccn3)c3ccccc32)nc2ccccc21`: the concentration giving a half-maximal response (EC50) came out at 238 nM. On to `CC(C)CCn1c(CN2C(=O)/C(=N/Oc3ccccc3)c3ccccc32)nc2ccccc21`, for which the EC50 turned out to be 375 nM. Regarding `CC(C)CCn1c(CN2C(=O)/C(=N/OCc3ccc(C(=O)O)cc3)c3ccccc32)nc2ccccc21`, the EC50 stood at 16 nM. As for `CN(C)CCn1c(CN2C(=O)/C(=N/OCc3ccc(C(=O)O)cc3)c3ccccc32)nc2ccccc21`, the EC50 amounted to 16.5 nM. Turning to `CCC(CC)/[N+]([O-])=C1\C(=O)N(Cc2nc3ccccc3n2CCCOC)c2ccccc21`, the EC50 is 898 nM.

For the compound `COCCCn1c(CN2C(=O)/C(=N/OCC(=O)O)c3ccccc32)nc2ccccc21`, the EC50 was found to be 295 nM. For `COCCCn1c(CN2C(=O)/C(=N/OC(CC(O)O)C(O)O)c3ccccc32)nc2ccccc21` (configuration not stated), the EC50 stood at 19 nM. Regarding `CO/N=C1/C(=O)N(Cc2nc3ccccc3n2CCCCOC(C)=O)c2ccccc21`, the EC50 was determined as 30 nM. For the compound `COCCCn1c(CN2C(=O)/C(=N/OCC3CCC3)c3ccccc32)nc2ccccc21`, the EC50 is 246 nM. The same measure, in the same setting: for `COCCCn1c(CN2C(=O)/C(=N/OCc3ccc(C(=O)N(C)C)cc3)c3ccccc32)nc2ccccc21` the value was 30 nM; for `COC(=O)c1ccc(CO/N=C2/C(=O)N(Cc3nc4ccccc4n3CCN(C)C)c3ccccc32)cc1`, 23 nM; for `CC(C)CCn1c(CN2C(=O)/C(=N/Oc3ccc(Br)cc3)c3ccccc32)nc2ccccc21`, 705 nM. Turning to `C#CCCCO/N=C1/C(=O)N(Cc2nc3ccccc3n2CCCOC)c2ccccc21`, the EC50 was 64 nM. Still for that read-out and setting: the same measure for `CCCCCO/N=C1/C(=O)N(Cc2nc3ccccc3n2CCCOC)c2ccccc21`: 188 nM; for `COCCCn1c(CN2C(=O)/C(=[N+](/[O-])C(C)C)c3ccccc32)nc2ccccc21`: 230 nM. `COCCCn1c(CN2C(=O)/C(=N/OCC3CCCO3)c3ccccc32)nc2ccccc21` (configuration not stated): the concentration for a half-maximal effect (EC50) was 152 nM. Consider `CS(=O)(=O)CCCn1c(CN2C(=O)/C(=N/OCc3ccc(S(C)(=O)=O)cc3)c3cnccc32)nc2ccccc21`, for which the concentration giving a half-maximal response (EC50) was 10600 nM.

As to `CO/N=C1/C(=O)N(Cc2nc3ccccc3n2CCCCO)c2ccccc21`, the concentration giving a half-maximal response (EC50) was 10 nM. As to `COC(=O)c1ccc(CO/N=C2/C(=O)N(Cc3nc4ccccc4n3CCC(C)C)c3ccccc32)cc1`, the 50% effective concentration (EC50) amounted to 23 nM. As to `COCCCn1c(CN2C(=O)/C(=N/OCCF)c3ccccc32)nc2ccccc21`, the EC50 came to 71 nM.

With `CO/N=C1/C(=O)N(Cc2nc3ccccc3n2CCC(C)C)c2ccccc21`, the EC50 stood at 87 nM.

For the compound `COC(=O)c1ccc(CO/N=C2/C(=O)N(Cc3nc4ccccc4n3CCNS(C)(=O)=O)c3ccccc32)cc1`, the EC50 was found to be 51 nM.

On to `COCCCn1c(CN2C(=O)/C(=N/OCC3CC3)c3ccccc32)nc2ccccc21`, for which the concentration for a half-maximal effect (EC50) was 96 nM. Consider `COCCCn1c(CN2C(=O)/C(=N/OCCC3CCCCC3)c3ccccc32)nc2ccccc21`, for which the concentration for a half-maximal effect (EC50) came to 384 nM.

Turning to `CCN(CC)C(=O)CO/N=C1/C(=O)N(Cc2nc3ccccc3n2CCCOC)c2ccccc21`, the concentration giving a half-maximal response (EC50) is 26 nM. As to `CC(C)CCn1c(CN2C(=O)/C(=N/OCc3ccccc3)c3ccccc32)nc2ccccc21`, the concentration for a half-maximal effect (EC50) worked out at 202 nM. On the same count and under the same terms, the same measure for `COCCCn1c(CN2C(=O)/C(=N/OCc3cccnc3)c3ccccc32)nc2ccccc21`: 141 nM. On to `COCCCn1c(CN2C(=O)/C(=N/OCc3ccc(C(=O)OC)cc3)c3ccccc32)nc2ccccc21`, for which the 50% effective concentration (EC50) is 50 nM.

Turning to `CS(=O)(=O)c1ccc(CO/N=C2/C(=O)N(Cc3nc4ccccc4n3CCCC#N)c3ccncc32)cc1`, the 50% effective concentration (EC50) was 10200 nM.

Turning to `COCCCn1c(CN2C(=O)/C(=N/OCCCN(C)C)c3ccccc32)nc2ccccc21`, the EC50 is 240 nM.

With `CC(C)CCn1c(CN2C(=O)/C(=N/O)c3ccccc32)nc2ccccc21`, the EC50 was 10 nM. For `N#CCCCn1c(CN2C(=O)/C(=N/OCC(F)(F)F)c3ccccc32)nc2ccccc21`, the EC50 was found to be 66 nM. The same measure, in the same setting: for `CCCCO/N=C1/C(=O)N(Cc2nc3ccccc3n2CCCOC)c2ccccc21` the value was 261 nM; for `COCCCn1c(CN2C(=O)/C(=N/OCCCF)c3ccccc32)nc2ccccc21`, 125 nM. Regarding `CCC(CC)O/N=C1/C(=O)N(Cc2nc3ccccc3n2CCCOC)c2ccccc21`, the EC50 was 935 nM.

Test system in the next data set: not listed separately
Put plainly: Metabolic stability in human liver mocrosomes. The following applies: liver microsomes.
`COCCCn1c(CN2C(=O)/C(=N/OC)c3ccccc32)nc2ccccc21`: the half-life (in general, how long it takes for the measured level to halve) came to 16 min. Regarding `CO/N=C1/C(=O)N(Cc2nc3ccccc3n2CCCCOC(C)=O)c2ccccc21`, the half-life is 1.5 min. Still for that read-out and setting: the same measure for `COC(=O)c1ccc(CO/N=C2/C(=O)N(Cc3nc4ccccc4n3CCN(C)C)c3ccccc32)cc1`: 0.6 min. `CS(=O)(=O)CCCn1c(CN2C(=O)/C(=N/OCc3ccc(S(C)(=O)=O)cc3)c3cnccc32)nc2ccccc21` returned a half-life of 200 min. This half-life lies about 330-fold higher than the previous one. Same read-out and setting: the same measure for `COC(=O)c1ccc(CO/N=C2/C(=O)N(Cc3nc4ccccc4n3CCC(C)C)c3ccccc32)cc1`: 0.6 min; for `CS(=O)(=O)c1ccc(CO/N=C2/C(=O)N(Cc3nc4ccccc4n3CCCC#N)c3ccncc32)cc1`: 29 min; for `N#CCCCn1c(CN2C(=O)/C(=N/OCC(F)(F)F)c3ccccc32)nc2ccccc21`: 18 min.

Test system in another data set: not listed separately
The data set can be described thus: Permeability across human Caco-2 cells.
Conditions: not given
A general note: Caco-2 monolayers are a common model of the intestinal barrier.
Take `N#CCCCn1c(CN2C(=O)/C(=N/OCC(N)=O)c3ccccc32)nc2ccccc21`: the apparent permeability (Papp) (as a rule, a coefficient for how fast a substance crosses the barrier) came to 3 ×10⁻⁶ cm/s. For the compound `COCCCn1c(CN2C(=O)/C(=N/OCc3ccc(C(=O)N(C)C)cc3)c3ccccc32)nc2ccccc21`, the Papp is 23.7 ×10⁻⁶ cm/s.

The record behind these values is ChEMBL document CHEMBL1153463 (Bioorg Med Chem Lett, 2009).
